Test results published in patent US6265445A, “Antiarrhythmic compounds” (priority 1997, dated 2001).
Structures can show the parent of a compound that is named as a salt. Where two headings read alike, the source gives them in different places.

How the values were obtained:
[1] = system: isolated right ventricular trabecule of dog heart; experiment: Extracellular electrophysiological measurements: impulse conduction time and effective refractory period; parameters: species or system mongrel dogs; conditions: for activation at 10 µM: Canis lupus familiaris; for effect on effective refractory period (in words) / effect on impulse conduction (in words): concentrations of Table 1
Protocol: Right ventricular trabecules were prepared from the heart of mongrel dogs (weighing 5 to 10 kg each). The surviving heart pieces were placed into an organ bath (37° C.) containing modified Tyrode's nutrient medium and excited by point stimulation with a basal frequency of 1 Hz. Extracellular bipolar platinum electrodes were placed on the surface of the preparations, by means of which the propagation of the superficial potentials were registered; thus, the determination of the time of impulse conduction or the rate of impulse conduction, respectively, and the effective refractory period (ERP) became possible. During our experiments,the frequency of stimulation was temporarily varied from 0.5 Hz up to 3 Hz. The tested compounds were directly added to the organ bath after dilution of the stock solution according to the desired final concentration.

[2] = system: right ventricular papillary muscle of dogs; experiment: Intracellular microelectrode technique: action potential parameters, ventricular papillary muscle; parameters: species or system mongrel dogs; conditions: for Trecovery (recovery time constant of Vmax): Gy: kinetics of rapid restoration; for effect on duration of the action potential (in words) / effect on Vmax (in words): concentrations of Table 2; for effect on Vmax (in words): rapid recovery kinetics
Protocol: The method used is essentially in agreement with the method of Papp et al. [J. Cardiovascular Pharmacol. Ther. 1, 287-296 (1996)].
Right ventricular papillary muscle and Purkinje's fibres were prepared from the hearts of mongrel dogs (weighing 5 to 10 kg each). The preparations were placed into an organ bath (37° C.) containing modified Tyrode's nutrient medium. The preparations were excited by a basal frequency of 1 Hz. During the experiments, the frequency of stimulation was varied under broad limits by a computer-guided stimulator. The intracellular action potentials were registered by using glass capillary microelectrodes filled with 3 N potassium chloride solution (standard intracellular microelectrode techniques). The resting potential (RP), the amplitude of the action potential (APA) as well as the duration of the action potential (APD) were measured by using an IBM 386 compatible computer by means of an own-developed software. The compounds under test were directly added into the organ bath after dilution of the stock solutions according to the final concentrations desired. The effects of the compounds were observed after an incubation time of 30 to 40 minutes.

[3] = 10 μM, 1 Hz, read-out: Prolongation (%) of ERP
[4] = 10 μM, 1 Hz, read-out: Prolongation (%) of impulse conduction time
[5] = 10 μM, 3 Hz, read-out: Prolongation (%) of ERP
[6] = 10 μM, 3 Hz, read-out: Prolongation (%) of impulse conduction time

Structure (SMILES)	activation at 10 µM [1, 3]	activation at 10 µM [1, 4]	activation at 10 µM [1, 5]	activation at 10 µM [1, 6]	APA (amplitude of the action potential) ([2]; 5 μM)	APD50 (time of 50% repolarization) ([2]; 5 μM)	APD90 (time of 90% repolarization) ([2]; 5 μM)	RP (resting potential) ([2]; 5 μM)	Recovery Ampl ([2]; 5 μM)	Recovery Ampl/Plateau ([2]; 5 μM)	Recovery Plateau ([2]; 5 μM)	Vmax (maximum rate of depolarization) ([2]; 5 μM)	Trecovery (recovery time constant of Vmax) ([2]; 5 μM)	effect on duration of the action potential (in words) [2]	effect on Vmax (in words) [2]	further results
Cc1ccccc1OCC(C)N(C)CCc1ccc(NS(C)(=O)=O)cc1 (centres unmarked) [Example 18, N-[4-[2-[N-Methyl-N-[2-(2-methylphenoxy)-1-methylethyl]-amino]ethyl]phenyl]methanesulfonamide hydrochloride]	9.9%	18.5%	14%	21.7%	–	–	–	–	–	–	–	–	–	–	–	–
Cc1cccc(C)c1OC[C@@H](C)N(C)CCc1ccc(NS(C)(=O)=O)cc1.Cl [Example 17, (R)-N-[4-[2-[N-Methyl-N-[2-(2,6-dimethylphenoxy)-1-methylethyl]amino]ethyl]phenyl]methanesulfonamide hydrochloride]	12.1%	32.5%	17.1%	35.1%	106 mV	203 ms	249 ms	-87 mV	85.2 V/s	0.52	173.7 V/s	169 V/s	390.4 ms	simultaneous prolongation of duration of the action potential (APD)	mexiletine-like inhibition of Vmax	difference between the effects of Example 15 and its enantiomers (in words) ([2]; 5 μM): No essential difference could be observed; effect on effective refractory period (in words) [1]: simultaneous prolongation of the effective refractory period (ERP); effect on impulse conduction (in words) [1]: significantly prolonged the time of impulse conduction in a frequency-dependent manner
Cc1ccccc1OCCN(C)CCc1ccc(NS(C)(=O)=O)cc1.Cl [Example 14, N-[4-[2-[N-Methyl-N-[2-(2-methylphenoxy)ethyl]amino]ethyl]-phenyl]methanesulfonamide hydrochloride]	–	–	–	–	114 mV	214 ms	257 ms	-90 mV	58.7 V/s	0.25	231.8 V/s	232 V/s	111.4 ms	simultaneous prolongation of duration of the action potential (APD)	mexiletine-like inhibition of Vmax	–
CN(CCOc1ccc(NS(C)(=O)=O)cc1)CCc1ccc(NS(C)(=O)=O)cc1 [Dofetilide, N-[4-[2-[N-methyl-N-[2-(4-methanesulfonamidophenoxy)ethyl]-amino]ethyl]phenyl]methanesulfonamide, reference compound]	–	–	–	–	–	–	–	–	–	–	–	–	–	–	–	APA (amplitude of the action potential) ([2]; 1 μM): 96 mV; APD50 (time of 50% repolarization) ([2]; 1 μM): 218 ms; APD90 (time of 90% repolarization) ([2]; 1 μM): 252 ms; RP (resting potential) ([2]; 1 μM): -76 mV; Vmax (maximum rate of depolarization) ([2]; 1 μM): 212 V/s
Cc1cccc(C)c1OCC(C)N.Cl (centres unmarked) [Mexiletine, 2-(2,6-dimethylphenoxy)-1-methylethylamine hydrochloride, reference compound]	–	–	–	–	–	–	–	–	–	–	–	–	–	–	–	APA (amplitude of the action potential) ([2]; 10 μM): 115 mV; APD50 (time of 50% repolarization) ([2]; 10 μM): 244 ms; APD90 (time of 90% repolarization) ([2]; 10 μM): 270 ms; RP (resting potential) ([2]; 10 μM): -92 mV; Recovery Ampl ([2]; 10 μM): 84.0 V/s; Recovery Ampl/Plateau ([2]; 10 μM): 0.45; Recovery Plateau ([2]; 10 μM): 186.5 V/s; Vmax (maximum rate of depolarization) ([2]; 10 μM): 193 V/s; Trecovery (recovery time constant of Vmax) ([2]; 10 μM): 214.1 ms; activation at 10 µM ([1]; read-out: Prolongation (%) of ERP, 10 μM, 1 Hz): -1.9 ± 1.7%; activation at 10 µM ([1]; read-out: Prolongation (%) of ERP, 10 μM, 3 Hz): 8.9%; activation at 10 µM ([1]; read-out: Prolongation (%) of impulse conduction time, 10 μM, 1 Hz): 3.9%; activation at 10 µM ([1]; read-out: Prolongation (%) of impulse conduction time, 10 μM, 3 Hz): 18.8%; effect on impulse conduction (in words) [1]: exerted an effect mainly on impulse conduction
Cc1cccc(C)c1OCC(C)NCCc1ccc(NS(C)(=O)=O)cc1.Cl (centres unmarked) [Example 22, N-[4-[2-[N-[2-(2,6-Dimethylphenoxy)-1-methylethyl]amino]-ethyl]phenyl]methanesulfonamide hydrochloride]	12.3%	22.6%	18.1%	28.3%	100 mV	215 ms	260 ms	-80 mV	136.3 V/s	0.58	232.8 V/s	159 V/s	337.8 ms	simultaneous prolongation of duration of the action potential (APD)	mexiletine-like inhibition of Vmax	–
Cc1ccc(C)c(OCC(C)N(C)CCc2ccc(NS(C)(=O)=O)cc2)c1 (centres unmarked) [Example 20, N-[4-[2-[N-Metbyl-N-[2-(2,5-dimethylphenoxy)-1-methylethyl]amino]ethyl]phenyl]methanesulfonamide hydrochloride]	8.4%	20.3%	12.6%	24.5%	–	–	–	–	–	–	–	–	–	–	–	–
Cc1cccc(C)c1OCC(C)N(C)CCc1ccc(NC(=O)c2ccccc2)cc1 (centres unmarked) [Example 25, N-[4-[2-[N-Methyl-N-[2-(2,6-dimethylphenoxy)-1-methylethyl]amino]ethyl]phenyl]benzamide hydrochloride]	11.7%	18.8%	17%	18.8%	–	–	–	–	–	–	–	–	–	–	–	–
CC(=O)Nc1ccc(CCN(C)C(C)COc2c(C)cccc2C)cc1 (centres unmarked) [Example 26, N-[4-[2-[N-Methyl-N-[2-(2,6-dimethylphenoxy)-1-methylethyl]amino]ethyl]phenyl]acetamide sesquihydrochloride monohydrate]	–	–	–	–	105 mV	200 ms	250 ms	-80 mV	120.9 V/s	0.62	195.9 V/s	195 V/s	199 ms	simultaneous prolongation of duration of the action potential (APD)	mexiletine-like inhibition of Vmax	–
Cc1cccc(C)c1OCCCN(C)CCc1ccc(NS(C)(=O)=O)cc1 [Example 23, N-[4-[2-[N-Methyl-N-[3-(2,6-dimethylphenoxy)propyl]amino]-ethyl]phenyl]methanesulfonamide hydrochloride]	10.8%	25%	14.9%	25%	–	–	–	–	–	–	–	–	–	–	–	–
Cc1cccc(C)c1OCCCCN(C)CCc1ccc(NS(C)(=O)=O)cc1.Cl [Example 24, N-[4-[2-[N-Methyl-N-[4-(2,6-dimethylphenoxy)butyl]amino]ethyl]phenyl]methanesulfonamide hydrochloride]	13.8%	69%	18.4%	82.9%	–	–	–	–	–	–	–	–	–	–	–	effect on effective refractory period (in words) [1]: simultaneous prolongation of the effective refractory period (ERP); effect on impulse conduction (in words) [1]: significantly prolonged the time of impulse conduction in a frequency-dependent manner
CNC(=S)Nc1ccc(CCN(C)C(C)COc2c(C)cccc2C)cc1 (centres unmarked) [Example 27, 1-Methyl-3-[4-[2-[N-methyl-N-[2-(2,6-dimethylphenoxy)-1-methylethyl]amino]ethyl]phenyl]thiourea sesquihydrochloride hemihydrate]	–	–	–	–	88 mV	210 ms	250 ms	-71 mV	78 V/s	0.53	147.9 V/s	117 V/s	161.8 ms	simultaneous prolongation of duration of the action potential (APD)	mexiletine-like inhibition of Vmax	–
